Assay results: patent US9617257B2, “Fused pyridine derivatives useful as c-Met tyrosine kinase inhibitors” (BETA PHARMACEUTICALS CO., LTD., priority 2012, dated 2017)
Like-named read-outs stand apart in the source and are kept apart here.

Assays:
Met (h) = molecular target: T1, Met (h) (Homo sapiens, UniProt P08581); assay: Met (h) kinase assay (33P-ATP filter assay, performed by Millipore); type: biochemical; settings: 0.2 μM test compound; remaining activity relative to DMSO control set to 100%; duplicate
T1 construct: purchased Millipore
Description: (specific activity approx. 500 cpm/pmol, concentration as required) and 0.2 μM test compound. The reaction is initiated by the addition of the MgATP mix. After incubation for 40 minutes at room temperature, the reaction is stopped by the addition of 3% phosphoric acid solution. 10 μL of the reaction is then spotted onto a P30 filtermat and washed three times for 5 minutes in 75 mM phosphoric acid and once in methanol prior to drying and scintillation counting. This assay is performed by Millipore. The experiment is carried out in duplicate. The value for the control sample (DMSO) was set to 100%, and the values for the compound-treated samples were expressed as activity relative to the control sample.

U87-MG cells = assay: Cellular proliferation analysis (MTS assay), U87-MG; type: cell-based; settings: Homo sapiens, U-87 MG, 168 h, read-out: IC50 U87-MG
Description: (§1) Cell proliferation analysis was conducted by the MTS assay protocol. Briefly, U87-MG cells will be cultured in EMEM medium, EBC-1 cells and SNU-5 cells will be cultured in MEM medium, MKN45 cells, NCI-H1975 cells and NCI-H1993 cells will be cultured in RPMI1640 medium, A549 cells will be cultured in McCoy's 5a medium. […] All culture media will be purchased from GIBCO (USA). The cells will be harvested respectively during the logarithmic growth period and counted with hemocytometer. […] Add […] cell suspensions to 96-well plates (triplicates for each cell concentration), the final cell densities are 2×10^4 or 1×10^4 or 5×10^3 cells/well. The density of 5×10^3 cells/well will be used for our first test. The appropriate cell density will be determined and adjusted according to the results of our first test. The next day, dissolve the test article or positive drugs with DMSO or PBS as stock solution. Dispense 2 μl drug solution in 1 ml culture media. Add 200 μl drug media into 96-well plates (triplicate for each drug concentration) after discard the old media. The final concentration of drug will be 0, 0.03, 0.1, 0.3, 1, 3, 10, 30 or 100 μM. The plates will be cultured for another 7 days, then measured by means of MTS assay. Prepare MTS/PMS solution immediately prior to use, pipet 20 μl of the mixture into each well of the 96 well assay plate containing 100 μl culture media. (The final reaction volume is 120 μl). Incubate the plate for 1-4 hours at 37° C. in a humidified, 5% CO2 atmosphere. Record the absorbance at 490 nm using Victor X5 microplate spectrophotometer.

EBC-1 cells = assay: Cellular proliferation analysis (MTS assay), EBC-1; type: cell-based; settings: Homo sapiens, read-out: IC50 EBC-1
Description: as §1

MKN45 cells = assay: Cellular proliferation analysis (MTS assay), MKN45; type: cell-based; settings: Homo sapiens, MKN-45, 168 h, read-out: IC50 MKN45
Description: as §1

NCI-H1975 cells = assay: Cellular proliferation analysis (MTS assay), NCI-H1975; type: cell-based; settings: Homo sapiens, read-out: IC50 NCI-H1975
Description: as §1

A549 cells = assay: Cellular proliferation analysis (MTS assay), A549; type: cell-based; settings: Homo sapiens, read-out: IC50 A549
Description: as §1

NCI-H1993 cells = assay: Cellular proliferation analysis (MTS assay), NCI-H1993; type: cell-based; settings: Homo sapiens, read-out: IC50 NCI-H1993
Description: as §1

SNU-5 cells = assay: Cellular proliferation analysis (MTS assay), SNU-5; type: cell-based; settings: Homo sapiens, SNU-5, 168 h, read-out: IC50 SNU5
Description: as §1

A549 tumors = settings: oral gavage, vs vehicle control
Description: (§2) Human non small cell lung cancer cells A549, human gastric cancer cells MKN45, and human lung squamous cell carcinoma cells EBC-1 are expanded in culture, harvested, and injected subcutaneously onto the right flank of BALB/c nude mice. Testing compound is prepared in an appropriate vehicle and is administered by oral gavage when tumors are established (6-10 days after implant). Tumor response is determined by tumor volume measurement performed twice a week during the course of treatment. Tumor volume inhibition (% growth inhibition) is calculated by comparing treated groups to vehicle control group. Body weight is taken as a general measurement of toxicity.

EBC-1 tumors = settings: oral gavage, vs vehicle control
Description: as §2

MKN45 tumors = settings: oral gavage, vs vehicle control
Description: as §2

[1] = 168 h, EBC-1 cells, 7 days, MTS
[2] = 168 h, NCI-H1975 cells, 7 days, MTS
[3] = 168 h, NCI-H1993 cells, 7 days, MTS

T1 sequence (P08581 25-1390): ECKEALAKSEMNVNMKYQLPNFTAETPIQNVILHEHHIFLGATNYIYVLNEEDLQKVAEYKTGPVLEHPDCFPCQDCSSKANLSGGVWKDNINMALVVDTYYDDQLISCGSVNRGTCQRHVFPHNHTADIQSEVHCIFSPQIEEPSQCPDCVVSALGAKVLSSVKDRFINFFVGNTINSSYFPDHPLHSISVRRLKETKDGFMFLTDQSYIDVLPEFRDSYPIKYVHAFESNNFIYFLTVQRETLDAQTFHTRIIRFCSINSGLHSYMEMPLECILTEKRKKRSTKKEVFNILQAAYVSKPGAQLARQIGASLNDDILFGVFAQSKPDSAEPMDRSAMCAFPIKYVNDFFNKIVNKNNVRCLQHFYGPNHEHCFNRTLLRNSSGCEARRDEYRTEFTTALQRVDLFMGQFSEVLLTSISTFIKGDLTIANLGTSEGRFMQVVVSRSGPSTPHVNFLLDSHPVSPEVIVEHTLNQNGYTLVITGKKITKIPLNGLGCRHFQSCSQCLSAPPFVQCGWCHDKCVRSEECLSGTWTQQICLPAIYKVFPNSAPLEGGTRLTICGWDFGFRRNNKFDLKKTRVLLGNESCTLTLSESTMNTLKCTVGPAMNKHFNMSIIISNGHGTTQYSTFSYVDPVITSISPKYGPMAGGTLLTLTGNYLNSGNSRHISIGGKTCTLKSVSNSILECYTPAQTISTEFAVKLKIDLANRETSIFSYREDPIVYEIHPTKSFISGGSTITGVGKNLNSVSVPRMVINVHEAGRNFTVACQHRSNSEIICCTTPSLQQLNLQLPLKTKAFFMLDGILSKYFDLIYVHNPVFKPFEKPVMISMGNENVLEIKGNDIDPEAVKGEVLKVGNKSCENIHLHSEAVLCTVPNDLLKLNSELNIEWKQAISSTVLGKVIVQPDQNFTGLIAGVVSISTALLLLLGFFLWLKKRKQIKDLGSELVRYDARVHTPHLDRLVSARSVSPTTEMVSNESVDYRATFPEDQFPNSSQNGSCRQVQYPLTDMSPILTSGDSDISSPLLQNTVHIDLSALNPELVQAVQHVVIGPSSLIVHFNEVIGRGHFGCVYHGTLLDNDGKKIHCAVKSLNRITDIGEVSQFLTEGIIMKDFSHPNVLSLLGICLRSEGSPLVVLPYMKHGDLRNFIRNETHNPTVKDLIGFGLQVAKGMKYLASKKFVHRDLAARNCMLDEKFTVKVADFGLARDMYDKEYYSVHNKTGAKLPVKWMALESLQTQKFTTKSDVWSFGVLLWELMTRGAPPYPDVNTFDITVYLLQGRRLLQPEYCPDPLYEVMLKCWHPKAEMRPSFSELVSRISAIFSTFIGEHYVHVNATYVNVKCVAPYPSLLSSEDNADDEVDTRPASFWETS

Activity (control) % (Met (h))	IC50 (U87-MG cells; U87-MG cells, 7 days, MTS)	IC50 (MKN45 cells; MKN45 cells, 7 days, MTS)	IC50 (NCI-H1975 cells; [2])	IC50 (A549 cells; 168 h, A549 cells, 7 days, MTS)	IC50 (NCI-H1993 cells; [3])	IC50 (SNU-5 cells; SNU5 cells, 7 days, MTS)	SMILES	IC50 (EBC-1 cells; [1])	other results
6%	5.5 µM	1.3 µM	8.3 µM	15.7 µM	7.9 µM	2.9 µM	O=C(Nc1ccc(Oc2ccnc3c2OCCN3)cc1)c1cccn(-c2ccc(F)cc2)c1=O [Example 9, N-(4-(3,4-dihydro-2H-pyrido[3,2-b][1,4]oxazin-8-yloxy)phenyl)-1-(4-fluorophenyl)-2-oxo-1,2-dihydropyridine-3-carboxamide]	0.6 µM	–
11%	5.1 µM	6.7 µM	17.8 µM	23.3 µM	4.6 µM	7.8 µM	O=C(Nc1ccc(Oc2ccnc3c2CCN3)c(F)c1)c1cccn(-c2ccc(F)cc2)c1=O [Example 7, N-(4-(2,3-dihydro-1H-pyrrolo[2,3-b]pyridin-4-yloxy)-3-fluorophenyl)-1-(4-fluorophenyl)-2-oxo-1,2-dihydropyridine-3-carboxamide]	9.4 µM	–
15%	3.8 µM	11.5 µM	23.2 µM	20.6 µM	9.2 µM	9.3 µM	O=C(Nc1ccc(F)cc1)C1(C(=O)Nc2ccc(Oc3ccnc4c3CCN4)c(F)c2)CC1 [Example 12]	11.1 µM	–
51%	–	–	–	–	–	–	Cc1c(C(=O)Nc2ccc(Oc3ccnc4c3CCN4)c(F)c2)c(=O)n(-c2ccccc2)n1C [Example 19, N-(4-(2,3-dihydro-1H-pyrrolo[2,3-b]pyridin-4-yloxy)-3-fluorophenyl)-1,5-dimethyl-3-oxo-2-phenyl-2,3-dihydro-1H-pyrazole-4-carboxamide]	–	–
2%	4.7 µM	1.2 µM	14.3 µM	18.1 µM	0.7 µM	1.7 µM	O=C(Nc1ccc(Oc2ccnc3c2OCCCN3)cc1)c1c[nH]cc(-c2ccc(F)cc2)c1=O [Example 56, 5-(4-Fluoro-phenyl)-4-oxo-1,4-dihydro-pyridine-3-carboxylic acid [4-(6,7,8,9-tetrahydro-5-oxa-1,9-diaza-benzocyclohepten-4-yloxy)-phenyl]-amide]	0.1 µM	–

SMILES	Activity (control) % (Met (h))	IC50 (U87-MG cells; U87-MG cells, 7 days, MTS)	IC50 (MKN45 cells; MKN45 cells, 7 days, MTS)	IC50 (NCI-H1975 cells; [2])	IC50 (A549 cells; 168 h, A549 cells, 7 days, MTS)	IC50 (NCI-H1993 cells; [3])	IC50 (SNU-5 cells; SNU5 cells, 7 days, MTS)	IC50 (EBC-1 cells; [1])	other results
O=C(Nc1ccc(Oc2ccnc3c2CCN3)c(F)c1)c1c[nH]cc(-c2ccc(F)cc2)c1=O [Example 1, N-(4-(2,3-dihydro-1H-pyrrolo[2,3-b]pyridin-4-yloxy)-3-fluorophenyl)-5-(4-fluorophenyl)-4-oxo-1,4-dihydropyridine-3-carboxamide]	1%	–	–	–	–	–	–	–	IC50 (U87-MG cells): 3.4 µM; IC50 (EBC-1 cells; EBC-1, 168 h): 0.06 µM; IC50 (MKN45 cells): 0.4 µM; IC50 (NCI-H1975 cells; NCI-H1975, 168 h): 13 µM; IC50 (A549 cells; A549, 168 h): 15.4 µM; IC50 (NCI-H1993 cells; NCI-H1993, 168 h): 0.4 µM; IC50 (SNU-5 cells): 0.9 µM; growth inhibition of A549 tumors (A549 tumors; 60 mg/kg (qd x24)): 76.6%; growth inhibition of A549 tumors (A549 tumors; 120 mg/kg (qd x24)): 96.7%; growth inhibition of EBC-1 tumors (EBC-1 tumors; 40 mg/kg (qd x17)): 56.5%; growth inhibition of EBC-1 tumors (EBC-1 tumors; 80 mg/kg (qd x17)): 100%; growth inhibition of MKN45 tumors (MKN45 tumors; 60 mg/kg (qd x22)): 38.9%; growth inhibition of MKN45 tumors (MKN45 tumors; 120 mg/kg (qd x22)): 71.9%
Cc1c(C(=O)Nc2ccc(Oc3ccnc4c3OCCN4)c(F)c2)c(=O)n(-c2ccccc2)n1C [Example 20, N-(4-(3,4-dihydro-2H-pyrido[3,2-b][1,4]oxazin-8-yloxy)-3-fluorophenyl)-1,5-dimethyl-3-oxo-2-phenyl-2,3-dihydro-1H-pyrazole-4-carboxamide]	45%	–	–	–	–	–	–	–	–
O=C(Nc1ccc(Oc2ccnc3c2OCCN3)c(F)c1)c1c[nH]cc(-c2ccc(F)cc2)c1=O [Example 3, N-(4-(3,4-dihydro-2H-pyrido[3,2-b][1,4]oxazin-8-yloxy)-3-fluorophenyl)-5-(4-fluorophenyl)-4-oxo-1,4-dihydropyridine-3-carboxamide]	6%	–	–	–	–	–	–	–	IC50 (U87-MG cells): 6.3 µM; IC50 (EBC-1 cells; EBC-1, 168 h): 0.4 µM; IC50 (MKN45 cells): 6.2 µM; IC50 (NCI-H1975 cells; NCI-H1975, 168 h): 14.6 µM; IC50 (A549 cells; A549, 168 h): 20.1 µM; IC50 (NCI-H1993 cells; NCI-H1993, 168 h): 1.5 µM; IC50 (SNU-5 cells): 3.1 µM
